From ChEMBL document CHEMBL4265951, “Multi-target-directed ligands for Alzheimer's disease: Discovery of chromone-based monoamine oxidase/cholinesterase inhibitors” (Eur J Med Chem, 2018) come the findings set out here.

Series [1] has as its system HepG2. Kind of series: Cytotoxicity against human HepG2 cells assessed as reduction in cell viability at 0.1 to 50 uM after 48 hrs by resazurin reduction assay. The series is classed as cell-based. Particulars: hepg2, 48 h. In general terms: Alamar Blue is a resazurin reagent that responds to reducing activity.
The test system of series [2] is SH-SY5Y. Kind of series: Cytotoxicity against human SH-SY5Y cells assessed as reduction in cell viability at 0.1 to 50 uM after 48 hrs by resazurin reduction assay. The series is classed as cell-based.
Series [3] addresses T1, Amine oxidase [flavin-containing] B (Homo sapiens, UniProt P27338).
T1 sequence (P27338 whole entry): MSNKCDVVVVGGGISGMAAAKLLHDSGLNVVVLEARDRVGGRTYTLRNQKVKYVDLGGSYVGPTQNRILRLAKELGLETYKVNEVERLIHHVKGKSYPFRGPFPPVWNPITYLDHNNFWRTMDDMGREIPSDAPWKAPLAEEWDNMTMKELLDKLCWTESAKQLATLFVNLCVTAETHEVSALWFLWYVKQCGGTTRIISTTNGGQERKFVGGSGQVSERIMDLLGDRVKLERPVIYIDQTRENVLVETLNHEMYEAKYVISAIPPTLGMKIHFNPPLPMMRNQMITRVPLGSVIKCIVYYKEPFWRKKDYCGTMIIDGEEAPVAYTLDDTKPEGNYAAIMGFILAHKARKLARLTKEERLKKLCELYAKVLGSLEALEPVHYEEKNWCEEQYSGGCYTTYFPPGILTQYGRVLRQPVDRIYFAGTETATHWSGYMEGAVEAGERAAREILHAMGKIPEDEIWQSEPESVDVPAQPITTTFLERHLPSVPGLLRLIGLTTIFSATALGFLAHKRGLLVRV
The experiment in a line: Competitive inhibition of human recombinant microsomal MAOB expressed in baculovirus infected BTI-TN-5B1- 4 cells using p-tyramine as substrate assessed as decrease in H2O2 production at 500 to 1000 nM by Lineweaver-Burk plot analysis.

Series [4] has as its target T1, Amine oxidase [flavin-containing] B. Kind of series: biochemical. The series is classed as cell-based.
Description: Inhibition of human recombinant MAOB expressed in baculovirus infected BTI-TN-5B1- 4 cells using p-tyramine as substrate assessed as decrease in H2O2 production by amplex red-based fluorescence assay
The target in series [5] is T2, Acetylcholinesterase (Homo sapiens, UniProt P22303). The experiment in a line: Inhibition of human AChE using acetylthiocholine iodide as substrate pretreated for 5 mins followed by substrate addition measured after 5 mins by Ellman's method. In general terms: In Ellman's method for cholinesterases, released thiocholine reacts with DTNB.
For series [6], the target named is T3, Cholinesterase (Homo sapiens, UniProt P06276). Kind of series: Inhibition of human serum BuChE using butyrylthiocholine as substrate pretreated for 5 mins followed by substrate addition measured after 5 mins by Ellman's method.
The target of a further series is Beta-secretase 1 (Homo sapiens, UniProt P56817). The experiment in a line: Inhibition of human BACE1 using rhodamine-EVNLDAEFK-quencher as substrate after 60 mins by FRET assay.
The subject of series [7] is SH-SY5Y. Kind of series: Cytotoxicity against human SH-SY5Y cells assessed as reduction in cell viability at 0.1 to 50 uM after 48 hrs by SRB assay. The series is classed as cell-based. Background: The SRB assay estimates cell density from bound dye.
Series [8] has as its target T1, Amine oxidase [flavin-containing] B. Kind of series: Reversible competitive inhibition of human recombinant microsomal MAOB expressed in baculovirus infected BTI-TN-5B1- 4 cells using p-tyramine as substrate assessed as decrease in H2O2 production by Dixon plot analysis.
The target of series [9] is T4, Amine oxidase [flavin-containing] A (Homo sapiens, UniProt P21397).
T4 sequence (P21397 whole entry): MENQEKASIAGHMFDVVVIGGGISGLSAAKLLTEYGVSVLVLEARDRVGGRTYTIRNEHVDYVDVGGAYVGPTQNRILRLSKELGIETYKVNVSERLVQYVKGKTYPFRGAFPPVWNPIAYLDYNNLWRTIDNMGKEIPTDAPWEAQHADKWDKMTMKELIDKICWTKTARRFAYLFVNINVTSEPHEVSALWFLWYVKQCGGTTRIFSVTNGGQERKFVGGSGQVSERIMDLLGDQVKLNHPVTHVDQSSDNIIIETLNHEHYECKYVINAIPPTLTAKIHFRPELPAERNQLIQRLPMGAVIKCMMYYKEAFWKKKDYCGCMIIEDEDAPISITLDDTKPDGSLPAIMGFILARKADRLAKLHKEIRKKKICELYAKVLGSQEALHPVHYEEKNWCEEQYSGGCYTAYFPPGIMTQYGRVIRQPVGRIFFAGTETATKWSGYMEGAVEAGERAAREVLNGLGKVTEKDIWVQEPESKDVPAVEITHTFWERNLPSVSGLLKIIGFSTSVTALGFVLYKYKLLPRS
The experiment in a line: Inhibition of human recombinant microsomal MAOA expressed in baculovirus infected BTI-TN-5B1- 4 cells using p-tyramine as substrate assessed as decrease in H2O2 production at 10 uM by amplex red-based fluorescence assay.

For series [10], the system named is HepG2. Kind of series: Cytotoxicity against human HepG2 cells assessed as reduction in cell viability at 0.1 to 50 uM after 48 hrs by SRB assay. The series is classed as cell-based. The settings on record: hepg2, 48 h.
Series [11] can be described thus: in vitro. Particulars: PAMPA.
Description: Effective permeability of the compound at 1 mg/ml after 4 hrs by BBB-PAMPA method
In series [12] the target is T4, Amine oxidase [flavin-containing] A. The experiment in a line: Inhibition of human recombinant microsomal MAOA expressed in baculovirus infected BTI-TN-5B1- 4 cells using p-tyramine as substrate assessed as decrease in H2O2 production at 100 uM by amplex red-based fluorescence assay.
The target of series [13] is T1, Amine oxidase [flavin-containing] B. Kind of series: Inhibition of human recombinant MAOB expressed in baculovirus infected BTI-TN-5B1- 4 cells using p-tyramine as substrate assessed as decrease in H2O2 production at 10 uM by amplex red-based fluorescence assay.
Series [14] concerns the target T3, Cholinesterase. The experiment in a line: Inhibition of human serum BuChE at 10 uM using butyrylthiocholine as substrate pretreated for 5 mins followed by substrate addition measured after 5 mins by Ellman's method.
In series [15] the target is T4, Amine oxidase [flavin-containing] A. The experiment in a line: biochemical.
Description: Inhibition of human recombinant microsomal MAOA expressed in baculovirus infected BTI-TN-5B1- 4 cells using p-tyramine as substrate assessed as decrease in H2O2 production by amplex red-based fluorescence assay
Series [16] can be described thus: in vitro. The settings on record: PAMPA. This is another data set of the same source.
Description: Effective permeability of the compound at 25 ug/ml after 18 hrs by BBB-PAMPA method
The test system of series [17] is SH-SY5Y. The experiment in a line: Cytotoxicity against human SH-SY5Y cells assessed as reduction in cell viability at 25 to 50 uM after 48 hrs by resazurin reduction assay. In kind it is cell-based.
Series [18] has as its target T4, Amine oxidase [flavin-containing] A. Kind of series: Reversible competitive inhibition of human recombinant microsomal MAOA expressed in baculovirus infected BTI-TN-5B1- 4 cells using p-tyramine as substrate assessed as decrease in H2O2 production by Dixon plot analysis.
Series [19] shares this target. The experiment in a line: Competitive inhibition of human recombinant microsomal MAOA expressed in baculovirus infected BTI-TN-5B1- 4 cells using p-tyramine as substrate assessed as decrease in H2O2 production at 1000 to 2000 nM by Lineweaver-Burk plot analysis.
Series [20] in a line: Cytotoxicity against human SH-SY5Y cells assessed as cell mass at 50 uM after 48 hrs by SRB assay relative to control. In kind it is cell-based. Particulars: read-out: Activity.
For series [21], the target named is T4, Amine oxidase [flavin-containing] A. Kind of series: Reversible inhibition of human recombinant microsomal MAOA expressed in baculovirus infected BTI-TN-5B1- 4 cells using p-tyramine as substrate assessed as decrease in H2O2 production at IC80 after 60 mins. Particulars: 1 h.
The target of series [22] is T2, Acetylcholinesterase. The experiment in a line: Mixed type inhibition of human AChE using acetylthiocholine iodide as substrate pretreated for 5 mins followed by substrate addition measured after 5 mins by Dixon plot analysis.
Series [23] addresses T2, Acetylcholinesterase. Kind of series: Mixed type inhibition of human AChE at 0.05 to 0.20 uM using acetylthiocholine iodide as substrate pretreated for 5 mins followed by substrate addition measured after 5 mins by Lineweaver burk plot analysis.
For series [24], the target named is T2, Acetylcholinesterase. Kind of series: Inhibition of human AChE at 10 uM using acetylthiocholine iodide as substrate pretreated for 5 mins followed by substrate addition measured after 5 mins by Ellman's method.

The source made the active and inactive calls. No cut-off for these calls is given here.

Sequence of Beta-secretase 1 (P56817 whole entry): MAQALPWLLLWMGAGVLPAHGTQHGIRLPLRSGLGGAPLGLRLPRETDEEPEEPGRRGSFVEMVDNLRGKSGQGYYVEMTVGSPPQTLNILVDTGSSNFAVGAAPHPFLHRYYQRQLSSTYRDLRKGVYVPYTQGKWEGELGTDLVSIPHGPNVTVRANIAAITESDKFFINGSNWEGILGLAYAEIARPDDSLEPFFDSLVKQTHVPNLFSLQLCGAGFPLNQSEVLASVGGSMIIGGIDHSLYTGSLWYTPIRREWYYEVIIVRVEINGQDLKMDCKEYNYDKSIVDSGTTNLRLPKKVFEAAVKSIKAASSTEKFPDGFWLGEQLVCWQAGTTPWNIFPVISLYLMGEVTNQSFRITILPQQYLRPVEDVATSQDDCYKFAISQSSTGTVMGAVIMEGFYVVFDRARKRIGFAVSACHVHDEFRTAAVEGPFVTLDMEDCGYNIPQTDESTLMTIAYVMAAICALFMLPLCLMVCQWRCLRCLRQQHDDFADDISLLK
T3 sequence (P06276 whole entry): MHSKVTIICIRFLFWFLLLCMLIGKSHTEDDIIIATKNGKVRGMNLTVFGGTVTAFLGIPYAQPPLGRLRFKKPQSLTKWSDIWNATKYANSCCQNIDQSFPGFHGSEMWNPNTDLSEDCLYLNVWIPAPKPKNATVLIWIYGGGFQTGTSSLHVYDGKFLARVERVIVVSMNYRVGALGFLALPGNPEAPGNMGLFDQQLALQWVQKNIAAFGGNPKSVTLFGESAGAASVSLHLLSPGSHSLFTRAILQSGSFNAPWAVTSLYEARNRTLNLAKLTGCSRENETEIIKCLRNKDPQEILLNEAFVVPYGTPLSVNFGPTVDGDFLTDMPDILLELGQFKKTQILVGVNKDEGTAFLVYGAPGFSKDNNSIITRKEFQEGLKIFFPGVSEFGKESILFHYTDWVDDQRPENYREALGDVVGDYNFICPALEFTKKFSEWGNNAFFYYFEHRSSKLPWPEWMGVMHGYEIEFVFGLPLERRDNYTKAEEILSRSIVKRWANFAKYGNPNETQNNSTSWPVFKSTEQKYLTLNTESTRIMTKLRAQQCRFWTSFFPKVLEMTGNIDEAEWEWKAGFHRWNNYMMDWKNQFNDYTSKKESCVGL
T2 sequence (P22303 whole entry): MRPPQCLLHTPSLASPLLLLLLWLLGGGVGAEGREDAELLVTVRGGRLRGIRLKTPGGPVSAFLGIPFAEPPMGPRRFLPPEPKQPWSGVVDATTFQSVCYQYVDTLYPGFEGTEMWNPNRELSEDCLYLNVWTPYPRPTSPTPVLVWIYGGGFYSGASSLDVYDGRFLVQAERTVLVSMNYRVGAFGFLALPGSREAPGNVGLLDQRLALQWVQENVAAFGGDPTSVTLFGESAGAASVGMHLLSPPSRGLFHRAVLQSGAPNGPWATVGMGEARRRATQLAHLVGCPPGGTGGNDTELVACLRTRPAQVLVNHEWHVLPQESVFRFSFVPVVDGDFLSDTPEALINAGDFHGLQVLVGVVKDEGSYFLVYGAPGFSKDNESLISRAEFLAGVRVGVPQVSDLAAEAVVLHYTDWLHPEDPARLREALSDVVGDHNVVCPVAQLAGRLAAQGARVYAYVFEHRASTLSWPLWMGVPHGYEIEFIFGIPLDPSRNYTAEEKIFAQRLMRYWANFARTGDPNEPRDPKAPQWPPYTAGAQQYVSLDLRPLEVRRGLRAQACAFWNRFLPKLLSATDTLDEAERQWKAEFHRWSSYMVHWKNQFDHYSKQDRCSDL

For the compound `CN(C)CCOC(=O)/C=C/c1ccc2occ(C(=O)Nc3ccccc3)c(=O)c2c1`, the Activity entry in the series on HepG2 [1], in the series on SH-SY5Y [2], with SH-SY5Y [7] and with HepG2 [10] was “Non-Toxic” each time. Also, the “inhibition (INH)” value is reported as “Active” in [3] and “Not Active” in series [9]. In addition, the IC50 was 630 nM in series [4], 3690 nM on Acetylcholinesterase [5], 4320 nM on Cholinesterase [6] and greater than 10000 nM on Beta-secretase 1. In series [8], the Ki was 337 nM. Also, in “in vitro [11]”, the Papp at 4 h, 1 mg/ml was determined as 6.4 ×10⁻⁶ cm/s.

As to `C[C@H](NCc1ccc(OCc2cccc(F)c2)cc1)C(N)=O` [SAFINAMIDE], the “inhibition (INH)” value in series [12] is given as “Not Active”.

For `COc1ccc(NC(=O)c2cc(=O)c3cc(/C=C/C(=O)OCCN(C)C)ccc3o2)cc1`, the IC50 came to 910 nM on Acetylcholinesterase [5] and 4910 nM in series [15]. For the same compound, in series [13], the “inhibition (INH)” value is listed as “Not Active”. In addition, the inhibition entry at Cholinesterase [14] was “inactive”.

As to `C[C@]12CCC(=O)C=C1CC[C@@H]1[C@@H]2[C@@H](O)C[C@]2(C=O)[C@@H](C(=O)CO)CC[C@@H]12` [ALDOSTERONE], in “in vitro [11]”, the Papp at 4 h, 1 mg/ml was 1 ×10⁻⁶ cm/s. For the same compound, the Papp at 18 h, 25 ug/ml in the series “in vitro [16]” was found to be 1.2 ×10⁻⁶ cm/s.

Take `Cc1ccc(NC(=O)c2cc(=O)c3cc(/C=C/C(=O)OCCN(C)C)ccc3o2)cc1`: the Activity result in the series with SH-SY5Y [17] is “Toxic”. Moreover, the Ki is 57 nM in series [18], 478 nM in [8] and 190 nM at Acetylcholinesterase [22]. In addition, the “inhibition (INH)” value in series [3], in series [19] and in [21] was “Active” in each case. In addition, the IC50 in series [4] was 3810 nM; on Acetylcholinesterase [5], 210 nM; against Beta-secretase 1, greater than 10000 nM; in [15] it was 940 nM. For the same compound, the viability at 48 h, 50 µM in series [20] turned out to be 44%. The inhibition entry on Cholinesterase [14] is “inactive”. In addition, the inhibition result on Acetylcholinesterase [23] is “Active”. For the same compound, the Papp at 4 h, 1 mg/ml in “in vitro [11]” was 5.2 ×10⁻⁶ cm/s.

For the compound `CN(C)CCOC(=O)/C=C/c1ccc2oc(C(=O)Nc3ccccc3)cc(=O)c2c1`, the IC50 in series [4] is 2280 nM; at Acetylcholinesterase [5], 740 nM; at Cholinesterase [6], 1570 nM; at Beta-secretase 1, greater than 10000 nM. The “inhibition (INH)” value in series [9] was “Not Active”. For the same compound, the Papp at 4 h, 1 mg/ml in “in vitro [11]” was determined as 3.6 ×10⁻⁶ cm/s.

Turning to `Cc1ccc(NC(=O)c2coc3ccc(/C=C/C(=O)O)cc3c2=O)cc1`, the “inhibition (INH)” value in series [9] and in series [13] was “Not Active” throughout. The inhibition entry at Acetylcholinesterase [24] and on Cholinesterase [14] was “inactive” each time. Also, the Papp at 4 h, 1 mg/ml in “in vitro [11]” turned out to be 1.6 ×10⁻⁶ cm/s.

With `O=C(O)/C=C/c1ccc2occ(C(=O)Nc3ccccc3)c(=O)c2c1`, the Activity result in the series on HepG2 [1], in the series on SH-SY5Y [2], with SH-SY5Y [7] and in the series with HepG2 [10] was “Non-Toxic” each time. In addition, the IC50 was 4660 nM in series [4], 9250 nM at Acetylcholinesterase [5] and greater than 10000 nM at Beta-secretase 1. Also, the “inhibition (INH)” value in [9] is “Not Active”. Moreover, the inhibition entry on Cholinesterase [14] is “inactive”. The same compound gave a Papp at 4 h, 1 mg/ml in the series “in vitro [11]” of 1.2 ×10⁻⁶ cm/s.

Regarding `Cc1ccc(NC(=O)c2coc3ccc(/C=C/C(=O)OCCN(C)C)cc3c2=O)cc1`, the IC50 in [4] is 2370 nM; on Acetylcholinesterase [5] it was 970 nM; on Cholinesterase [6], 7420 nM; against Beta-secretase 1, greater than 10000 nM. Also, in series [9], the “inhibition (INH)” value was “Not Active”. In “in vitro [11]”, this compound displayed an apparent permeability coefficient (Papp) at 4 h, 1 mg/ml of 9.7 ×10⁻⁶ cm/s.

One may read the IC50 as the concentration at which inhibition is half-maximal. In general, Ki refers to a dissociation constant, usually derived from enzyme kinetics or from competition with a known ligand. A word on the Papp: it is a coefficient for how fast a substance crosses the barrier.
